Reference: US12084472B2 (Ardelyx, Inc., priority 2015, dated 2024)

Biological target: T1, human TGR5 (Homo sapiens, UniProt Q8TDU6)
T1 construct: expressed in transfected cells; host or cells: HEK293
T1 sequence (Q8TDU6 1-330): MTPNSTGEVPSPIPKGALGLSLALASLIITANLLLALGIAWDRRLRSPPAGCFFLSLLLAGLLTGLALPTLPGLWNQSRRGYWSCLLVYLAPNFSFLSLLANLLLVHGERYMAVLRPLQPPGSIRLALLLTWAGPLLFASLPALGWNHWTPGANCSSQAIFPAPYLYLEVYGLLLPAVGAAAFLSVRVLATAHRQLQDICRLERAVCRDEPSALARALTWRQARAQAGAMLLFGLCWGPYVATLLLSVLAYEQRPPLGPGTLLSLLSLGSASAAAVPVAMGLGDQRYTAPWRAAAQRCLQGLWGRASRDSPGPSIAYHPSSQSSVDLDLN
Assay: Cell-based TGR5 assay (cAMP generation, HTRF)
Conditions: HEK293 cells stably transfected with human TGR5; cAMP by HTRF; 30 minutes at 37° C.; read-out: pEC50 Human TGR5 (converted)
Method in brief: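 First, compounds in 3-fold serial dilution were placed in HBSS with 10 mM HEPES pH 7.4 and 0.5 mM IBMX. Next, human TGR5-expressing HEK293 cells were added and incubated 30 min at 37° C. Finally, cAMP was detected by HTRF and pEC50 derived by logistic fitting.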

SMILES	EC50
CN(C[C@H](O)[C@@H](O)[C@H](O)[C@H](O)CO)C(=O)NCCCCCc1cc(Cl)c(CNC2(c3cnccc3-c3ccccc3OC3CC3)CC2)cc1Cl (stereo in doubt) [Compound I-163, 1-(5-{2,5-dichloro-4-[({1-[4-(2-cyclopropoxyphenyl)pyridin-3-yl]cyclopropyl}amino)methyl]phenyl}pentyl)-3-methyl-3-[(2S,3R,4R,5R)-2,3,4,5,6-pentahydroxyhexyl]urea]	< 100 nM
O=C(CCCCc1cc(Cl)c(COC2(c3cnccc3-c3ccccc3OC3CC3)CC2)cc1Cl)N(CCO)C[C@H](O)[C@@H](O)[C@H](O)[C@H](O)CO [Compound I-105, 5-[2,5-dichloro-4-({1-[4-(2-cyclopropoxyphenyl)pyridin-3-yl]cyclopropoxy}methyl)phenyl]-N-(2-hydroxyethyl)-N-[(2S,3R,4R,5R)-2,3,4,5,6-pentahydroxyhexyl]pentanamide]	< 100 nM
O=C([C@H](O)[C@@H](O)[C@H](O)[C@H](O)CO)N(CCCCCCO)CCCCc1cc(Cl)c(COC2(c3cnccc3-c3ccccc3OC3CC3)CC2)cc1Cl [Compound I-83, (2R,3S,4R,5R)-N-{4-[2,5-dichloro-4-({1-[4-(2-cyclopropoxyphenyl)pyridin-3-yl]cyclopropoxy}methyl)phenyl]butyl}-2,3,4,5,6-pentahydroxy-N-(6-hydroxyhexyl)hexanamide]	< 100 nM
COCCC(=O)N(CCCCc1cc(Cl)c(COC2(c3cnccc3-c3ccccc3OC3CC3)CC2)cc1Cl)C[C@H](O)[C@@H](O)[C@H](O)[C@H](O)CO [Compound I-75, N-(4-(2,5-dichloro-4-((1-(4-(2-cyclopropoxyphenyl)pyridin-3-yl)cyclopropoxy)methyl)phenyl)butyl)-3-methoxy-N-((2S,3R,4R,5R)-2,3,4,5,6-pentahydroxyhexyl)propanamide]	< 100 nM
O=C(CCCCc1cc(Cl)c(COC2(c3cnccc3-c3ccccc3OC3CC3)CC2)cc1Cl)NC[C@H](O)[C@@H](O)[C@H](O)[C@H](O)CO [Compound I-135, 5-[2,5-dichloro-4-({1-[4-(2-cyclopropoxyphenyl)pyridin-3-yl]cyclopropoxy}methyl)phenyl]-N-[(2S,3R,4R,5R)-2,3,4,5,6-pentahydroxyhexyl]pentanamide]	< 100 nM
O=C(NC[C@H](O)[C@@H](O)[C@H](O)[C@H](O)CO)N(CCCCc1cc(Cl)c(COC2(c3cnccc3-c3ccccc3OC3CC3)CC2)cc1Cl)CCOCCO [Compound I-86, 1-(4-(2,5-dichloro-4-((1-(4-(2-cyclopropoxyphenyl)pyridin-3-yl)cyclopropoxy)methyl)phenyl)butyl)-1-(2-(2-hydroxyethoxy)ethyl)-3-((2S,3R,4R,5R)-2,3,4,5,6-pentahydroxyhexyl)urea]	< 100 nM
O[C@@H]1COC[C@H]1Oc1ccccc1-c1ccncc1C1(NCc2cc(Cl)ccc2Cl)CC1 [Compound I-22, (3R,4R)-4-{2-[3-(1-{[(2,5-dichlorophenyl)methyl]amino}cyclopropyl)pyridin-4-yl]phenoxy}oxolan-3-ol]	1260 to 10000 nM
O=C(CCCCc1cc(Cl)c(COC2(c3cnccc3-c3ccccc3OC3CC3)CC2)cc1Cl)N(Cc1ccccc1)C[C@H](O)[C@@H](O)[C@H](O)[C@H](O)CO [Compound I-126, N-benzyl-5-(2,5-dichloro-4((1-(4-(2-cyclopropoxyphenyl)pyridin-3-yl)cyclopropoxy)methyl)phenyl)-N-((2S,3R,4R,5R)-2,3,4,5,6-pentahydroxyhexyl)pentanamide]	126 to 1000 nM

The remaining lines, values ahead:

EC50	SMILES
126 to 1000 nM	CCOC(=O)NCCN(CCCSc1ccc(Cl)c(CNC2(c3cnccc3-c3ccccc3OC3CC3)CC2)c1)C(=O)[C@@H](O)[C@@H](O)[C@H](O)[C@@H](O)CO [Compound I-587, ethyl N-{2-[(2S,3S,4R,5S)-N-[3-({4-chloro-3-[({1-[4-(2-cyclopropoxyphenyl)pyridin-3-yl]cyclopropyl}amino)methyl]phenyl}sulfanyl)propyl]-2,3,4,5,6-pentahydroxyhexanamido]ethyl}carbamate]
1260 to 10000 nM	CN(CC(=O)O)CC(=O)N(CCCCc1cc(Cl)c(CNC2(c3cnccc3-c3ccccc3OC3CC3)CC2)cc1Cl)C[C@H](O)[C@@H](O)[C@H](O)[C@H](O)CO [Compound I-200, 2-({[(4-{2,5-dichloro-4-[({1-[4-(2-cyclopropoxyphenyl)pyridin-3-yl]cyclopropyl}amino)methyl]phenyl}butyl)[(2S,3R,4R,5R)-2,3,4,5,6-pentahydroxyhexyl]carbamoyl]methyl}(methyl)amino) acetic acid]
< 100 nM	CC(CCCC(=O)N(C[C@@H](O)[C@H](O)[C@@H](O)[C@@H](O)CO)[C@H]1CC[C@@H](O)CC1)c1ccc(Cl)c(CNC2(c3cnccc3-c3ccccc3OC3CC3)CC2)c1 (stereo partly drawn) [Compound I-343, 5-{4-chloro-3-[({1-[4-(2-cyclopropoxyphenyl)pyridin-3-yl]cyclopropyl}amino)methyl]phenyl}-N-[(2R,3S,4S,5S)-2,3,4,5,6-pentahydroxyhexyl]-N-[(1s,4s)-4-hydroxycyclohexyl]hexanamide]
< 100 nM	O=C([C@@H](O)[C@@H](O)[C@H](O)[C@@H](O)CO)N(CCCCSc1ccc(Cl)c(COC2(c3cnccc3-c3ccccc3OC3CC3)CC2)c1)CC1CCOCC1 [Compound I-516, (2S,3S,4R,5S)-N-(4-{[4-chloro-3-({1-[4-(2-cyclopropoxyphenyl)pyridin-3-yl]cyclopropoxy}methyl)phenyl]sulfanyl}butyl)-2,3,4,5,6-pentahydroxy-N-(oxan-4-ylmethyl)hexanamide]
126 to 1000 nM	CC(=O)N(CCSc1ccc(Cl)c(CNC2(c3cnccc3-c3ccccc3OC3CC3)CC2)c1)C[C@H](O)[C@@H](O)[C@H](O)[C@H](O)CO [Compound I-504, N-[2-({4-chloro-3-[({1-[4-(2-cyclopropoxyphenyl)pyridin-3-yl]cyclopropyl}amino)methyl]phenyl}sulfanyl)ethyl]-N-[(2S,3R,4R,5R)-2,3,4,5,6-pentahydroxyhexyl]acetamide]
< 100 nM	CC(CCCCN(C)C(=O)NC[C@H](O)[C@@H](O)[C@H](O)[C@H](O)CO)c1ccc(Cl)c(CNC2(c3cnccc3-c3ccccc3OC3CC3)CC2)c1 (stereo partly drawn) [Compound I-269, 1-(5-{4-chloro-3-[({1-[4-(2-cyclopropoxyphenyl)pyridin-3-yl]cyclopropyl}amino)methyl]phenyl}hexyl)-1-methyl-3-[(2S,3R,4R,5R)-2,3,4,5,6-pentahydroxyhexyl]urea]
< 100 nM	CC(CCCN(CCCN1CCCC1=O)C(=O)[C@@H](O)[C@@H](O)[C@H](O)[C@@H](O)CO)c1ccc(Cl)c(CNC2(c3cnccc3-c3ccccc3OC3CC3)CC2)c1 (stereo partly drawn) [Compound I-294, (2S,3S,4R,5S)-N-(4-{4-chloro-3-[({1-[4-(2-cyclopropoxyphenyl)pyridin-3-yl]cyclopropyl}amino)methyl]phenyl}pentyl)-2,3,4,5,6-pentahydroxy-N-[3-(2-oxopyrrolidin-1-yl)propyl]hexanamide]
< 100 nM	CC(=O)N(CCCCC(C)c1ccc(Cl)c(CNC2(c3cnccc3-c3ccccc3OC3CC3)CC2)c1)C[C@H](O)[C@@H](O)[C@H](O)[C@H](O)CO (stereo partly drawn) [Compound I-378, N-(5-{4-chloro-3-[({1-[4-(2-cyclopropoxyphenyl)pyridin-3-yl]cyclopropyl}amino)methyl]phenyl}hexyl)-N-[(2S,3R,4R,5R)-2,3,4,5,6-pentahydroxyhexyl]acetamide]
< 100 nM	CS(=O)(=O)NCCN(CCCSc1ccc(Cl)c(CNC2(c3cnccc3-c3ccccc3OC3CC3)CC2)c1)C(=O)[C@@H](O)[C@@H](O)[C@H](O)[C@@H](O)CO [Compound I-585, (2S,3S,4R,5S)-N-[3-({4-chloro-3-[({1-[4-(2-cyclopropoxyphenyl)pyridin-3-yl]cyclopropyl}amino)methyl]phenyl}sulfanyl)propyl]-2,3,4,5,6-pentahydroxy-N-(2-methanesulfonamidoethyl) hexanamide]
< 100 nM	O=S(=O)(Nc1ccccc1)c1ccc(Cl)c(COC2(c3cnccc3-c3ccccc3OC3CC3)CC2)c1 [Compound I-771, 4-chloro-3-((1-(4-(2-cyclopropoxyphenyl)pyridin-3-yl)cyclopropoxy)methyl)-N-phenylbenzenesulfonamide]
< 100 nM	Cc1ccc(C(C)CCCN(C)C(=O)[C@@H](O)[C@@H](O)[C@H](O)[C@@H](O)CO)cc1CNC1(c2cnccc2-c2ccccc2OC2CC2)CC1 (stereo partly drawn) [Compound I-301, (2S,3S,4R,5S)-N-(4-{3-[({1-[4-(2-cyclopropoxyphenyl)pyridin-3-yl]cyclopropyl}amino)methyl]-4-methylphenyl}pentyl)-2,3,4,5,6-pentahydroxy-N-methylhexanamide]
< 100 nM	CC(=O)NCCCCN(CCCSc1ccc(Cl)c(COC2(c3cnccc3-c3ccccc3OC3CC3)CC2)c1)C(=O)[C@@H](O)[C@@H](O)[C@H](O)[C@@H](O)CO [Compound I-579, (2S,3S,4R,5S)-N-(3-{[4-chloro-3-({1-[4-(2-cyclopropoxyphenyl)pyridin-3-yl]cyclopropoxy}methyl)phenyl]sulfanyl}propyl)-N-(4-acetamidobutyl)-2,3,4,5,6-pentahydroxyhexanamide]
< 100 nM	CCN(CCCCN)S(=O)(=O)c1ccc(Cl)c(COC2(c3cnccc3-c3ccccc3OC3CC3)CC2)c1 [Compound I-463, N-(4-aminobutyl)-4-chloro-3-({1-[4-(2-cyclopropoxyphenyl)pyridin-3-yl]cyclopropoxy}methyl)-N-ethylbenzene-1-sulfonamide]
